This is an account of results in patent US11970474B2, “Substituted benzodiazoles and use thereof in therapy” (THOMAS HELLEDAYS STIFTELSE FÖR MEDICINSK FORSKNING, priority 2018, dated 2024).

Structures are written as SMILES.

One assay addresses OGG1 (Homo sapiens (Human), UniProt O15527). Nature of the assay: In vitro OGG1 activity assay. Type of assay: biochemical. To be noted: 800 pM OGG1 enzyme, 2 nM human APEX1, 10 nM 8-oxoA:C substrate. The gist of the method: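 Fluorescence-release assay on a duplex oligonucleotide carrying an OGG1 substrate base beside a fluorophore, quenched from the complementary strand. Excess APEX1 cleaves the abasic site left by base excision, melting the duplex and unquenching the fluorophore. Compounds in DMSO were dispensed before enzyme and substrate, and fluorescein signal was read.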

The subject of another assay is MLE12 cells. The assay can be described thus: Cell viability assay in MLE12 cells (resazurin). The format is cell-based, mouse. To be noted: Mus musculus, MLE12, 24 h, TNF-α 20 ng/ml, resazurin added after 24 hours culture. An outline of the steps: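 MLE12 cells (7500 cells/well) were seeded onto 11-point duplicate compound dose-responses, with TNF-α (final 20 ng/ml) added after 1 hour at 37° C. After 24 hours, resazurin was added for 6 hours and resorufin fluorescence read (ex544 nm/em595 nm). EC50 values were calculated by curve fitting.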
On the technique in general: The colour change of resazurin is a common sign of viable cells or microbes.

For a further assay, the system named is CCL2. The assay can be described thus: Mouse CCL2 assay in MLE12 cells. The format is cell-based. To be noted: Mus musculus, MLE12, 30 h, MLE12 cells; TNF-α 20 ng/ml; supernatant after 30 hours; HTRF; read-out: CCL2 (EC50). An outline of the steps:
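MLE12 mouse lung epithelial cells (7500/well, DMEM/F12 with 5% FBS) preincubated 1 h with compounds (6-point dose-response, duplicate), then stimulated with TNF-α (final 20 ng/ml) for 30 h at 37 °C. Secreted CCL2 measured by HTRF sandwich immunoassay (Ex330/Em620, 665 nm) against standard curve; IC50 from delta ratios.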

OGG1, sequence (O15527 whole entry): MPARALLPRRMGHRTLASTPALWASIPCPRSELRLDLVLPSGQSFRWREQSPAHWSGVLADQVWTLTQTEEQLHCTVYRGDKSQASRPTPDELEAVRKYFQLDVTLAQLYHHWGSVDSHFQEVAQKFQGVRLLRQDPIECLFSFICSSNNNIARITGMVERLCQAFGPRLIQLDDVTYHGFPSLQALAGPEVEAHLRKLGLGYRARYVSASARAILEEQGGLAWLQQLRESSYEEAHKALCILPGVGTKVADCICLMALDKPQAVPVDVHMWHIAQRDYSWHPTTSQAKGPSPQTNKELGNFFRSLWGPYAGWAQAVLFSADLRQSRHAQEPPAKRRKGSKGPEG

For `COC(=O)c1cc(NC(=O)[C@H]2CC[C@@H](n3c(=O)[nH]c4c(Br)cccc43)CC2)ccc1OC` [Example 151, Methyl 2-methoxy-5-[(cis)-4-(4-bromo-2-oxo-2,3-dihydro-1H-1,3-benzodiazol-1-yl)cyclohexaneamido]benzoate], the figures for the concentration for half-maximal inhibition (IC50) at OGG1 and with MLE12 cells were 0.526 µM and 17.1 µM, respectively. Moreover, the EC50 in the assay on CCL2 was determined as 5.25 µM.
Taken in the same sequence, the figures for `COc1cc(NC(=O)[C@H]2CC[C@@H](n3c(=O)[nH]c4c(N5CC[C@H](N(C)C)C5)cccc43)CC2)ccc1C` [Example 295, Cis-4-{4-[(3S)-3-(dimethylamino)pyrrolidin-1-yl]-2-oxo-2,3-dihydro-1H-1,3-benzodiazol-1-yl}-N-(3-methoxy-4-methylphenyl)cyclohexane-1-carboxamide] were 0.00962 µM, 10.4 µM and 11.1 µM.
Taken in the same sequence, the figures for `COc1cc(NC(=O)[C@H]2CC[C@@H](n3c(=O)[nH]c4c(NC(=O)[C@@H]5C[C@@H](O)CN5)cccc43)CC2)ccc1C` [Example 286, (2S,4R)-4-Hydroxy-N-{2-oxo-1-[cis-4-[(3-methoxy-4-methylphenyl)carbamoyl]cyclohexyl]-2,3-dihydro-1H-1,3-benzodiazol-4-yl}pyrrolidine-2-carboxamide] were 0.0181 µM, 20.3 µM and more than 33 µM.
For `Cn1ncc2cc(NC(=O)[C@H]3CC[C@@H](n4c(=O)[nH]c5c(Br)cccc54)CC3)ccc21` [Example 171, (Cis)-4-(4-bromo-2-oxo-2,3-dihydro-1H-1,3-benzodiazol-1-yl)-N-(1-methyl-1H-indazol-5-yl)cyclohexane-1-carboxamide], in that order: 0.211 µM, 17.5 µM and 41.1 µM.
As to `O=C(Nc1ccc(Cl)c(F)c1)N1C2CCC1CC(n1c(=O)[nH]c3c(-c4ccc(CO)nc4)cccc31)C2` (stereo not drawn) [Example 94, N-(4-chloro-3-fluorophenyl)-3-{4-[6-(hydroxymethyl)pyridin-3-yl]-2-oxo-2,3-dihydro-1H-1,3-benzodiazol-1-yl}-(endo)-8-azabicyclo[3.2.1]octane-8-carboxamide], the concentration for half-maximal inhibition (IC50) on OGG1 came to 0.105 µM; in the assay on MLE12 cells, 8.45 µM. Also, the concentration for a half-maximal effect (EC50) in the assay on CCL2 came out at 20.2 µM.
Regarding `COc1cc(NC(=O)[C@H]2CC[C@@H](n3c(=O)[nH]c4c(C(=O)NCc5ncc[nH]5)cccc43)CC2)ccc1C` [Example 270, N-[(1H-Imidazol-2-yl)methyl]-2-oxo-1-[cis-4-[(3-methoxy-4-methylphenyl)carbamoyl]cyclohexyl]-2,3-dihydro-1H-1,3-benzodiazole-4-carboxamide], the 50% inhibitory concentration (IC50) at OGG1 worked out at 0.00039 µM; in the assay on MLE12 cells, 16.8 µM. Also, in the assay on CCL2, the 50% effective concentration (EC50) was 32.9 µM.
Taken in the same sequence, the figures for `COc1cc(NC(=O)[C@H]2CC[C@@H](n3c(=O)[nH]c4c(C5=CCN(C)CC5)cccc43)CC2)ccc1C` [Example 312, Cis-N-(3-methoxy-4-methylphenyl)-4-[4-(1-methyl-1,2,3,6-tetrahydropyridin-4-yl)-2-oxo-2,3-dihydro-1H-1,3-benzodiazol-1-yl]cyclohexane-1-carboxamide] were 0.00294 µM, 11 µM and 28.5 µM.
Taken in the same sequence, the figures for `COc1cc(NC(=O)[C@H]2CC[C@@H](n3c(=O)[nH]c4c(NC(=O)CN5CCOCC5)cccc43)CC2)ccc1C` [Example 285, Cis-N-(3-methoxy-4-methylphenyl)-4-{4-[2-(morpholin-4-yl)acetamido]-2-oxo-2,3-dihydro-1H-1,3-benzodiazol-1-yl}cyclohexane-1-carboxamide] were 0.0451 µM, 15.9 µM and more than 33 µM.
Taken in the same sequence, the figures for `Cc1cc(NC(=O)[C@H]2CC[C@@H](n3c(=O)[nH]c4c(Br)cccc43)CC2)ccc1Cl` [Example 152, (Cis)-4-(4-bromo-2-oxo-2,3-dihydro-1H-1,3-benzodiazol-1-yl)-N-(4-chloro-3-methylphenyl)cyclohexane-1-carboxamide] were 0.074 µM, 6.18 µM and 15.4 µM.

For orientation: IC50 means the midpoint of a concentration-inhibition curve. Low readings indicate greater potency in that assay, high ones weaker potency in that assay. As a reminder, the EC50 is the concentration needed to bring the measured effect to its halfway point.
